# Laboratory results as given in PubChem BioAssay (NCI).
#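 These data come from cells grown in 96-well plates and exposed to compound for 48 hours at five concentrations. The concentration for full growth arrest is given as TGI.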
# Columns and labels:
# Experiment in all cases: growth of human tumour cells (NCI), 48 h
# 786-0 renal = tested on: 786-0 renal
# A498 renal = tested on: A498 renal
# A549 NSCLC = tested on: A549 NSCLC
# BT-549 breast = tested on: BT-549 breast
# CAKI-1 renal = tested on: CAKI-1 renal
# CCRF-CEM leukemia = tested on: CCRF-CEM leukemia
# COLO 205 colon = tested on: COLO 205 colon
# DU-145 prostate = tested on: DU-145 prostate
# EKVX NSCLC = tested on: EKVX NSCLC
# HCC-2998 colon = tested on: HCC-2998 colon
# HCT-116 colon = tested on: HCT-116 colon
# HCT-15 colon = tested on: HCT-15 colon
# HL-60(TB) leukemia = tested on: HL-60(TB) leukemia
# HS 578T breast = tested on: HS 578T breast
# HT29 colon = tested on: HT29 colon
# IGROV1 ovarian = tested on: IGROV1 ovarian
# K-562 leukemia = tested on: K-562 leukemia
# KM12 colon = tested on: KM12 colon
# LOX IMVI melanoma = tested on: LOX IMVI melanoma
# M14 melanoma = tested on: M14 melanoma
# MALME-3M melanoma = tested on: MALME-3M melanoma
# MCF7 breast = tested on: MCF7 breast
# MDA-MB-231 breast = tested on: MDA-MB-231 breast
# MDA-MB-435 = tested on: MDA-MB-435
# MDA-N = tested on: MDA-N
# MOLT-4 leukemia = tested on: MOLT-4 leukemia
# NCI-H226 lung = tested on: NCI-H226 lung
# NCI-H23 lung = tested on: NCI-H23 lung
# NCI-H460 lung = tested on: NCI-H460 lung
# NCI-H522 lung = tested on: NCI-H522 lung
# NCI/ADR-RES ovarian = tested on: NCI/ADR-RES ovarian
# OVCAR-3 ovarian = tested on: OVCAR-3 ovarian
# OVCAR-4 ovarian = tested on: OVCAR-4 ovarian
# OVCAR-5 ovarian = tested on: OVCAR-5 ovarian
# OVCAR-8 ovarian = tested on: OVCAR-8 ovarian
# PC-3 prostate = tested on: PC-3 prostate
# RPMI-8226 leukemia = tested on: RPMI-8226 leukemia
# RXF 393 renal = tested on: RXF 393 renal
# SF-268 CNS = tested on: SF-268 CNS
# SF-539 CNS = tested on: SF-539 CNS
# SK-MEL-2 melanoma = tested on: SK-MEL-2 melanoma
# SK-MEL-28 melanoma = tested on: SK-MEL-28 melanoma
# SK-MEL-5 melanoma = tested on: SK-MEL-5 melanoma
# SK-OV-3 ovarian = tested on: SK-OV-3 ovarian
# SN12C renal = tested on: SN12C renal
# SNB-19 CNS = tested on: SNB-19 CNS
# SNB-75 CNS = tested on: SNB-75 CNS
# SR leukemia = tested on: SR leukemia
# SW-620 colon = tested on: SW-620 colon
# T-47D breast = tested on: T-47D breast
# TK-10 renal = tested on: TK-10 renal
# U251 CNS = tested on: U251 CNS
# UACC-257 melanoma = tested on: UACC-257 melanoma
# UACC-62 melanoma = tested on: UACC-62 melanoma
# UO-31 renal = tested on: UO-31 renal
# ACHN renal = tested on: ACHN renal
# HOP-62 NSCLC = tested on: HOP-62 NSCLC
# HOP-92 NSCLC = tested on: HOP-92 NSCLC
# SF-295 CNS = tested on: SF-295 CNS
structure (smiles),measurement,setting,value
COC(=O)n1c(=O)n(-c2ccccc2)c(=O)n1C(=O)OC,TGI,786-0 renal,> 100 µM
same,TGI,A498 renal,> 100 µM
same,TGI,A549 NSCLC,> 100 µM
same,TGI,BT-549 breast,> 100 µM
same,TGI,CAKI-1 renal,> 100 µM
same,TGI,CCRF-CEM leukemia,> 100 µM
same,TGI,COLO 205 colon,> 100 µM
same,TGI,DU-145 prostate,> 100 µM
same,TGI,EKVX NSCLC,> 100 µM
same,TGI,HCC-2998 colon,> 100 µM
same,TGI,HCT-116 colon,> 100 µM
same,TGI,HCT-15 colon,> 100 µM
same,TGI,HL-60(TB) leukemia,> 100 µM
same,TGI,HS 578T breast,> 100 µM
same,TGI,HT29 colon,> 100 µM
same,TGI,IGROV1 ovarian,> 100 µM
same,TGI,K-562 leukemia,> 100 µM
same,TGI,KM12 colon,> 100 µM
same,TGI,LOX IMVI melanoma,> 100 µM
same,TGI,M14 melanoma,> 100 µM
same,TGI,MALME-3M melanoma,> 100 µM
same,TGI,MCF7 breast,> 100 µM
same,TGI,MDA-MB-231 breast,> 100 µM
same,TGI,MDA-MB-435,> 100 µM
same,TGI,MDA-N,> 100 µM
same,TGI,MOLT-4 leukemia,> 100 µM
same,TGI,NCI-H226 lung,> 100 µM
same,TGI,NCI-H23 lung,> 100 µM
same,TGI,NCI-H460 lung,> 100 µM
same,TGI,NCI-H522 lung,> 100 µM
same,TGI,NCI/ADR-RES ovarian,> 100 µM
same,TGI,OVCAR-3 ovarian,> 100 µM
same,TGI,OVCAR-4 ovarian,> 100 µM
same,TGI,OVCAR-5 ovarian,> 100 µM
same,TGI,OVCAR-8 ovarian,> 100 µM
same,TGI,PC-3 prostate,> 100 µM
same,TGI,RPMI-8226 leukemia,> 100 µM
same,TGI,RXF 393 renal,> 100 µM
same,TGI,SF-268 CNS,> 100 µM
same,TGI,SF-539 CNS,> 100 µM
same,TGI,SK-MEL-2 melanoma,> 100 µM
same,TGI,SK-MEL-28 melanoma,> 100 µM
same,TGI,SK-MEL-5 melanoma,> 100 µM
same,TGI,SK-OV-3 ovarian,> 100 µM
same,TGI,SN12C renal,> 100 µM
same,TGI,SNB-19 CNS,> 100 µM
same,TGI,SNB-75 CNS,> 100 µM
same,TGI,SR leukemia,> 100 µM
same,TGI,SW-620 colon,> 100 µM
same,TGI,T-47D breast,> 100 µM
same,TGI,TK-10 renal,> 100 µM
same,TGI,U251 CNS,> 100 µM
same,TGI,UACC-257 melanoma,> 100 µM
same,TGI,UACC-62 melanoma,> 100 µM
same,TGI,UO-31 renal,> 100 µM
COc1cccc(/C=C/c2cnc3ccccc3n2)c1OC,TGI,786-0 renal,> 100 µM
same,TGI,A498 renal,> 100 µM
same,TGI,A549 NSCLC,> 100 µM
same,TGI,ACHN renal,> 100 µM
same,TGI,BT-549 breast,53.1 µM
same,TGI,CAKI-1 renal,> 100 µM
same,TGI,CCRF-CEM leukemia,> 100 µM
same,TGI,COLO 205 colon,> 100 µM
same,TGI,DU-145 prostate,> 100 µM
same,TGI,EKVX NSCLC,> 100 µM
same,TGI,HCT-116 colon,> 100 µM
same,TGI,HCT-15 colon,92.7 µM
same,TGI,HL-60(TB) leukemia,> 100 µM
same,TGI,HOP-62 NSCLC,64.9 µM
same,TGI,HOP-92 NSCLC,88.2 µM
same,TGI,HS 578T breast,68.5 µM
same,TGI,HT29 colon,98.1 µM
same,TGI,IGROV1 ovarian,> 100 µM
same,TGI,K-562 leukemia,> 100 µM
same,TGI,KM12 colon,> 100 µM
same,TGI,LOX IMVI melanoma,> 100 µM
same,TGI,M14 melanoma,> 100 µM
same,TGI,MALME-3M melanoma,> 100 µM
same,TGI,MCF7 breast,> 100 µM
same,TGI,MDA-MB-231 breast,> 100 µM
same,TGI,MDA-MB-435,> 100 µM
same,TGI,MDA-N,> 100 µM
same,TGI,MOLT-4 leukemia,68.1 µM
same,TGI,NCI-H226 lung,> 100 µM
same,TGI,NCI-H23 lung,> 100 µM
same,TGI,NCI-H460 lung,> 100 µM
same,TGI,NCI-H522 lung,53.5 µM
same,TGI,NCI/ADR-RES ovarian,60.1 µM
same,TGI,OVCAR-3 ovarian,> 100 µM
same,TGI,OVCAR-4 ovarian,> 100 µM
same,TGI,OVCAR-5 ovarian,> 100 µM
same,TGI,OVCAR-8 ovarian,> 100 µM
same,TGI,PC-3 prostate,> 100 µM
same,TGI,RPMI-8226 leukemia,> 100 µM
same,TGI,RXF 393 renal,96.1 µM
same,TGI,SF-268 CNS,> 100 µM
same,TGI,SF-295 CNS,> 100 µM
same,TGI,SF-539 CNS,> 100 µM
same,TGI,SK-MEL-2 melanoma,98.5 µM
same,TGI,SK-MEL-28 melanoma,> 100 µM
same,TGI,SK-MEL-5 melanoma,58.3 µM
same,TGI,SK-OV-3 ovarian,> 100 µM
same,TGI,SN12C renal,> 100 µM
same,TGI,SNB-75 CNS,79.6 µM
same,TGI,SR leukemia,> 100 µM
same,TGI,SW-620 colon,> 100 µM
same,TGI,T-47D breast,82.9 µM
same,TGI,TK-10 renal,> 100 µM
same,TGI,U251 CNS,> 100 µM
same,TGI,UACC-257 melanoma,> 100 µM
same,TGI,UACC-62 melanoma,91.2 µM
same,TGI,UO-31 renal,> 100 µM
CCCCCCCCCCCCCCCCCCNc1ccn(C2OC(COP(=O)(O)OCC3OC(n4cc(C)c(=O)[nH]c4=O)CC3N=[N+]=[N-])C(O)C2O)c(=O)n1 (stereo not drawn),TGI,786-0 renal,> 100 µM
same,TGI,A549 NSCLC,> 100 µM
same,TGI,ACHN renal,> 100 µM
same,TGI,BT-549 breast,49.2 µM
same,TGI,CAKI-1 renal,58.6 µM
same,TGI,CCRF-CEM leukemia,48.7 µM
same,TGI,COLO 205 colon,30.7 µM
same,TGI,DU-145 prostate,> 100 µM
same,TGI,EKVX NSCLC,48.5 µM
same,TGI,HCC-2998 colon,29.9 µM
same,TGI,HCT-116 colon,> 100 µM
same,TGI,HCT-15 colon,36.1 µM
same,TGI,HOP-62 NSCLC,45 µM
same,TGI,HOP-92 NSCLC,> 100 µM
same,TGI,HS 578T breast,49.8 µM
same,TGI,HT29 colon,35.1 µM
same,TGI,IGROV1 ovarian,42.5 µM
same,TGI,K-562 leukemia,50.3 µM
same,TGI,KM12 colon,35 µM
same,TGI,LOX IMVI melanoma,37.8 µM
same,TGI,M14 melanoma,36.1 µM
same,TGI,MALME-3M melanoma,32.1 µM
same,TGI,MCF7 breast,> 100 µM
same,TGI,MDA-MB-231 breast,56.7 µM
same,TGI,MDA-MB-435,63.2 µM
same,TGI,MDA-N,> 100 µM
same,TGI,MOLT-4 leukemia,44.4 µM
same,TGI,NCI-H226 lung,43.7 µM
same,TGI,NCI-H23 lung,36 µM
same,TGI,NCI-H460 lung,36.6 µM
same,TGI,NCI-H522 lung,30.7 µM
same,TGI,NCI/ADR-RES ovarian,50 µM
same,TGI,OVCAR-3 ovarian,> 100 µM
same,TGI,OVCAR-4 ovarian,83.9 µM
same,TGI,OVCAR-5 ovarian,34.2 µM
same,TGI,OVCAR-8 ovarian,48.8 µM
same,TGI,PC-3 prostate,22.5 µM
same,TGI,RPMI-8226 leukemia,32.7 µM
same,TGI,SF-268 CNS,43.6 µM
same,TGI,SF-295 CNS,32.6 µM
same,TGI,SF-539 CNS,33.8 µM
same,TGI,SK-MEL-2 melanoma,39.8 µM
same,TGI,SK-MEL-28 melanoma,36.8 µM
same,TGI,SK-MEL-5 melanoma,57.2 µM
same,TGI,SK-OV-3 ovarian,40.3 µM
same,TGI,SN12C renal,48.1 µM
same,TGI,SNB-19 CNS,59.7 µM
same,TGI,SNB-75 CNS,58.5 µM
same,TGI,SR leukemia,80 µM
same,TGI,SW-620 colon,58.8 µM
same,TGI,T-47D breast,> 100 µM
same,TGI,TK-10 renal,69.5 µM
same,TGI,U251 CNS,36.2 µM
same,TGI,UACC-257 melanoma,76.3 µM
same,TGI,UACC-62 melanoma,36.4 µM
same,TGI,UO-31 renal,58.8 µM
